Measured values: patent US4746349A, “Method and compositions for suppressing the nitrification of ammonium in plant growth medium” (American Cyanamid Company, priority 1986, dated 1988)
Where a name gives a salt, the structure may show the parent alone.

Tests used:
Nitrosomonas spp. = assay: Nitrification of ammonium in soil incubated at 25° C. (ammonium recovery, nitrate accumulation); conditions: soil 25° C.; for Concentration of nitrate nitrogen / Recovery of Ammonium Nitrogen: 200 ppm N; for Specific inhibition of nitrification through activity against Nitrosomonas spp., in words: 0.1 to 0.5 ppm
Protocol: In these evaluations, one hundred grams (100 g) of oven dry, silt loam field soil with low residual nitrogen is added to a 6×12 cm screw-capped glass jar for each sampling date to provide an optimum environment for nitrification.
Two replicates of each treatment-sampling date are established. The soil is adjusted to 50% water saturation with an aqueous solution of ammonium sulfate at 200 ppm N and the chemical to be tested as a nitrification inhibitor at rates of from 0.10 to 0.50 ppm.
Incubation is at either 25° C. or 38° C. for 0, 1, 2, 4, 7, 9, 12, 16 or 20 weeks. Inorganic N is extracted by adding 2M KCl (10:1 v/w) and shaking for one hour, allowing settling for fifteen minutes. A 10 ml aliquot from the supernatant is assayed for ammonium, nitrite and nitrate by standard steam distillation methods (AOAC, pp. 653-655). Nitrapyrin (0.5 ppm) is used as a nitrification inhibitor for comparison. Benzyl alcohol, acetone, and a non-N amended soil are run as controls and as a check on mineralization.
Nitrification: Ammonium recovery and nitrate accumulation are indicative of nitrification, and data obtained with test compounds are reported in Tables I and II.

Nitrobacter spp. = assay: Nitrite nitrogen in ammonium amended soil incubated at 25° C.; conditions: soil 25° C., 200 ppm N
Protocol: Determination of nitrite nitrogen and nitrate nitrogen in soil prepared in Example 1 above, which is amended with 200 ppm of nitrogen as aqueous ammonium sulfate, […], is determined using the nitrite and nitrate analysis of the American Organization of Analytical Chemists (AOAC pp. 653-655).

## CC[C@@]1([C@@H]2O[C@@H]([C@H]3O[C@@](O)(CO)[C@H](C)C[C@@H]3C)C[C@@H]2C)CC[C@H]([C@]2(C)CC[C@]3(C[C@H](O)[C@@H](C)[C@@H]([C@@H](C)[C@@H](OC)[C@H](C)C(=O)O)O3)O2)O1 [Monensin sodium salt, Monensin]
Nitrosomonas spp.; 0.10 ppm, week 0
  Concentration of nitrate nitrogen: 18 PPM
Nitrosomonas spp.; 0.10 ppm, week 1
  Concentration of nitrate nitrogen: 17 PPM
  Recovery of Ammonium Nitrogen: 175 PPM
Nitrosomonas spp.; 0.10 ppm, week 2
  Concentration of nitrate nitrogen: 17 PPM
  Recovery of Ammonium Nitrogen: 175 PPM
Nitrosomonas spp.; 0.10 ppm, week 4
  Concentration of nitrate nitrogen: 45 PPM
  Recovery of Ammonium Nitrogen: 155 PPM
Nitrosomonas spp.; 0.10 ppm, week 7
  Concentration of nitrate nitrogen: 199 PPM
  Recovery of Ammonium Nitrogen: 17 PPM
Nitrosomonas spp.; 0.10 ppm, week 9
  Concentration of nitrate nitrogen: 220 PPM
  Recovery of Ammonium Nitrogen: 3 PPM
Nitrosomonas spp.; 0.10 ppm, week 12
  Concentration of nitrate nitrogen: 206 PPM
  Recovery of Ammonium Nitrogen: 2 PPM
Nitrosomonas spp.; 0.10 ppm, week 16
  Concentration of nitrate nitrogen: 213 PPM
  Recovery of Ammonium Nitrogen: 5 PPM
Nitrosomonas spp.
  Specific inhibition of nitrification through activity against Nitrosomonas spp., in words: appear to specifically inhibit nitrification through activity against Nitrosomonas spp.
Nitrosomonas spp.; 0.25 ppm, week 0
  Concentration of nitrate nitrogen: 19 PPM
Nitrosomonas spp.; 0.25 ppm, week 1
  Concentration of nitrate nitrogen: 22 PPM
  Recovery of Ammonium Nitrogen: 179 PPM
Nitrosomonas spp.; 0.25 ppm, week 2
  Concentration of nitrate nitrogen: 21 PPM
Nitrosomonas spp.; 0.25 ppm, week 4
  Concentration of nitrate nitrogen: 23 PPM
Nitrosomonas spp.; 0.25 ppm, week 7
  Concentration of nitrate nitrogen: 28 PPM
Nitrosomonas spp.; 0.25 ppm, week 9
  Concentration of nitrate nitrogen: 54 PPM
  Recovery of Ammonium Nitrogen: 157 PPM
Nitrosomonas spp.; 0.25 ppm, week 12
  Concentration of nitrate nitrogen: 70 PPM
  Recovery of Ammonium Nitrogen: 124 PPM
Nitrosomonas spp.; 0.25 ppm, week 16
  Concentration of nitrate nitrogen: 158 PPM
  Recovery of Ammonium Nitrogen: 74 PPM
Nitrosomonas spp.; 0.25 ppm, week 20
  Concentration of nitrate nitrogen: 121 PPM
  Recovery of Ammonium Nitrogen: 21 PPM
Nitrosomonas spp.; 0.50 ppm, week 0
  Concentration of nitrate nitrogen: 18 PPM
Nitrosomonas spp.; 0.50 ppm, week 1
  Concentration of nitrate nitrogen: 18 PPM
  Recovery of Ammonium Nitrogen: 176 PPM
Nitrosomonas spp.; 0.50 ppm, week 2
  Concentration of nitrate nitrogen: 21 PPM
Nitrosomonas spp.; 0.50 ppm, week 4
  Concentration of nitrate nitrogen: 22 PPM
Nitrosomonas spp.; 0.50 ppm, week 7
  Concentration of nitrate nitrogen: 23 PPM
Nitrosomonas spp.; 0.50 ppm, week 9
  Concentration of nitrate nitrogen: 19 PPM
Nitrosomonas spp.; 0.50 ppm, week 12
  Concentration of nitrate nitrogen: 22 PPM
Nitrosomonas spp.; 0.50 ppm, week 16
  Concentration of nitrate nitrogen: 121 PPM
  Recovery of Ammonium Nitrogen: 110 PPM
Nitrosomonas spp.; 0.50 ppm, week 20
  Concentration of nitrate nitrogen: 72 PPM
  Recovery of Ammonium Nitrogen: 143 PPM
Nitrobacter spp.; 0.10 ppm, week 0
  Concentration of nitrite nitrogen: 9 ppm
Nitrobacter spp.; 0.10 ppm, week 1
  Concentration of nitrite nitrogen: -4 ppm
Nitrobacter spp.; 0.10 ppm, week 2
  Concentration of nitrite nitrogen: 4 ppm
Nitrobacter spp.; 0.10 ppm, week 4
  Concentration of nitrite nitrogen: 11 ppm
Nitrobacter spp.; 0.10 ppm, week 7
  Concentration of nitrite nitrogen: 7 ppm
Nitrobacter spp.; 0.10 ppm, week 9
  Concentration of nitrite nitrogen: 16 ppm
Nitrobacter spp.; 0.10 ppm, week 12
  Concentration of nitrite nitrogen: 18 ppm
Nitrobacter spp.; 0.10 ppm, week 16
  Concentration of nitrite nitrogen: 7 ppm
Nitrobacter spp.; 0.10 ppm, week 20
  Concentration of nitrite nitrogen: 11 ppm
Nitrobacter spp.; 0.25 ppm, week 0
  Concentration of nitrite nitrogen: 6 ppm
Nitrobacter spp.; 0.25 ppm, week 1
  Concentration of nitrite nitrogen: 3 ppm
Nitrobacter spp.; 0.25 ppm, week 2
  Concentration of nitrite nitrogen: 6 ppm
Nitrobacter spp.; 0.25 ppm, week 4
  Concentration of nitrite nitrogen: 7 ppm
Nitrobacter spp.; 0.25 ppm, week 7
  Concentration of nitrite nitrogen: -4 ppm
Nitrobacter spp.; 0.25 ppm, week 9
  Concentration of nitrite nitrogen: 17 ppm
Nitrobacter spp.; 0.25 ppm, week 12
  Concentration of nitrite nitrogen: 30 ppm
Nitrobacter spp.; 0.25 ppm, week 16
  Concentration of nitrite nitrogen: 3 ppm
Nitrobacter spp.; 0.25 ppm, week 20
  Concentration of nitrite nitrogen: 90 ppm
Nitrobacter spp.; 0.50 ppm, week 0
  Concentration of nitrite nitrogen: 6 ppm
Nitrobacter spp.; 0.50 ppm, week 1
  Concentration of nitrite nitrogen: 5 ppm
Nitrobacter spp.; 0.50 ppm, week 2
  Concentration of nitrite nitrogen: 6 ppm
Nitrobacter spp.; 0.50 ppm, week 4
  Concentration of nitrite nitrogen: 0 ppm
Nitrobacter spp.; 0.50 ppm, week 7
  Concentration of nitrite nitrogen: 2 ppm
Nitrobacter spp.; 0.50 ppm, week 9
  Concentration of nitrite nitrogen: -7 ppm
Nitrobacter spp.; 0.50 ppm, week 12
  Concentration of nitrite nitrogen: 4 ppm
Nitrobacter spp.; 0.50 ppm, week 16
  Concentration of nitrite nitrogen: 2 ppm
Nitrobacter spp.; 0.50 ppm, week 20
  Concentration of nitrite nitrogen: 22 ppm

## CC[C@@H](C(=O)[C@@H](C)[C@@H](O)[C@H](C)CCc1ccc(C)c(O)c1C(=O)O)[C@H]1O[C@](CC)([C@H]2CC[C@](O)(CC)[C@H](C)O2)C[C@@H]1C [Lasalocid sodium salt, Lasalocid]
Nitrosomonas spp.; 0.10 ppm, week 0
  Concentration of nitrate nitrogen: 19 PPM
  Recovery of Ammonium Nitrogen: 194 PPM
Nitrosomonas spp.; 0.10 ppm, week 1
  Concentration of nitrate nitrogen: 21 PPM
  Recovery of Ammonium Nitrogen: 177 PPM
Nitrosomonas spp.; 0.10 ppm, week 2
  Concentration of nitrate nitrogen: 41 PPM
  Recovery of Ammonium Nitrogen: 143 PPM
Nitrosomonas spp.; 0.10 ppm, week 4
  Concentration of nitrate nitrogen: 90 PPM
  Recovery of Ammonium Nitrogen: 109 PPM
Nitrosomonas spp.; 0.10 ppm, week 7
  Concentration of nitrate nitrogen: 197 PPM
  Recovery of Ammonium Nitrogen: 7 PPM
Nitrosomonas spp.; 0.10 ppm, week 9
  Concentration of nitrate nitrogen: 219 PPM
  Recovery of Ammonium Nitrogen: 0 PPM
Nitrosomonas spp.; 0.10 ppm, week 12
  Concentration of nitrate nitrogen: 220 PPM
  Recovery of Ammonium Nitrogen: 8 PPM
Nitrosomonas spp.; 0.10 ppm, week 16
  Concentration of nitrate nitrogen: 223 PPM
  Recovery of Ammonium Nitrogen: 3 PPM
Nitrosomonas spp.
  Specific inhibition of nitrification through activity against Nitrosomonas spp., in words: appear to specifically inhibit nitrification through activity against Nitrosomonas spp.
Nitrosomonas spp.; 0.25 ppm, week 0
  Concentration of nitrate nitrogen: 18 PPM
  Recovery of Ammonium Nitrogen: 194 PPM
Nitrosomonas spp.; 0.25 ppm, week 1
  Concentration of nitrate nitrogen: 21 PPM
  Recovery of Ammonium Nitrogen: 184 PPM
Nitrosomonas spp.; 0.25 ppm, week 2
  Concentration of nitrate nitrogen: 18 PPM
  Recovery of Ammonium Nitrogen: 186 PPM
Nitrosomonas spp.; 0.25 ppm, week 4
  Concentration of nitrate nitrogen: 28 PPM
  Recovery of Ammonium Nitrogen: 197 PPM
Nitrosomonas spp.; 0.25 ppm, week 7
  Concentration of nitrate nitrogen: 26 PPM
  Recovery of Ammonium Nitrogen: 194 PPM
Nitrosomonas spp.; 0.25 ppm, week 9
  Concentration of nitrate nitrogen: 68 PPM
  Recovery of Ammonium Nitrogen: 147 PPM
Nitrosomonas spp.; 0.25 ppm, week 12
  Concentration of nitrate nitrogen: 46 PPM
  Recovery of Ammonium Nitrogen: 180 PPM
Nitrosomonas spp.; 0.25 ppm, week 16
  Concentration of nitrate nitrogen: 158 PPM
  Recovery of Ammonium Nitrogen: 78 PPM
Nitrosomonas spp.; 0.25 ppm, week 20
  Concentration of nitrate nitrogen: 154 PPM
  Recovery of Ammonium Nitrogen: 44 PPM
Nitrosomonas spp.; 0.50 ppm, week 0
  Concentration of nitrate nitrogen: 18 PPM
  Recovery of Ammonium Nitrogen: 195 PPM
Nitrosomonas spp.; 0.50 ppm, week 1
  Concentration of nitrate nitrogen: 18 PPM
  Recovery of Ammonium Nitrogen: 169 PPM
Nitrosomonas spp.; 0.50 ppm, week 2
  Concentration of nitrate nitrogen: 14 PPM
  Recovery of Ammonium Nitrogen: 168 PPM
Nitrosomonas spp.; 0.50 ppm, week 4
  Concentration of nitrate nitrogen: 18 PPM
  Recovery of Ammonium Nitrogen: 173 PPM
Nitrosomonas spp.; 0.50 ppm, week 7
  Concentration of nitrate nitrogen: 18 PPM
  Recovery of Ammonium Nitrogen: 199 PPM
Nitrosomonas spp.; 0.50 ppm, week 9
  Concentration of nitrate nitrogen: 17 PPM
  Recovery of Ammonium Nitrogen: 202 PPM
Nitrosomonas spp.; 0.50 ppm, week 12
  Concentration of nitrate nitrogen: 20 PPM
  Recovery of Ammonium Nitrogen: 215 PPM
Nitrosomonas spp.; 0.50 ppm, week 16
  Concentration of nitrate nitrogen: 52 PPM
  Recovery of Ammonium Nitrogen: 175 PPM
Nitrosomonas spp.; 0.50 ppm, week 20
  Concentration of nitrate nitrogen: 26 PPM
  Recovery of Ammonium Nitrogen: 135 PPM
Nitrobacter spp.; 0.10 ppm, week 0
  Concentration of nitrite nitrogen: 8 ppm
Nitrobacter spp.; 0.10 ppm, week 1
  Concentration of nitrite nitrogen: 2 ppm
Nitrobacter spp.; 0.10 ppm, week 2
  Concentration of nitrite nitrogen: 1 ppm
Nitrobacter spp.; 0.10 ppm, week 4
  Concentration of nitrite nitrogen: 15 ppm
Nitrobacter spp.; 0.10 ppm, week 7
  Concentration of nitrite nitrogen: 12 ppm
Nitrobacter spp.; 0.10 ppm, week 9
  Concentration of nitrite nitrogen: 10 ppm
Nitrobacter spp.; 0.10 ppm, week 12
  Concentration of nitrite nitrogen: 5 ppm
Nitrobacter spp.; 0.10 ppm, week 16
  Concentration of nitrite nitrogen: 6 ppm
Nitrobacter spp.; 0.10 ppm, week 20
  Concentration of nitrite nitrogen: 11 ppm
Nitrobacter spp.; 0.25 ppm, week 0
  Concentration of nitrite nitrogen: 5 ppm
Nitrobacter spp.; 0.25 ppm, week 1
  Concentration of nitrite nitrogen: 0 ppm
Nitrobacter spp.; 0.25 ppm, week 2
  Concentration of nitrite nitrogen: 3 ppm
Nitrobacter spp.; 0.25 ppm, week 4
  Concentration of nitrite nitrogen: 2 ppm
Nitrobacter spp.; 0.25 ppm, week 7
  Concentration of nitrite nitrogen: 0 ppm
Nitrobacter spp.; 0.25 ppm, week 9
  Concentration of nitrite nitrogen: 3 ppm
Nitrobacter spp.; 0.25 ppm, week 12
  Concentration of nitrite nitrogen: 8 ppm
Nitrobacter spp.; 0.25 ppm, week 16
  Concentration of nitrite nitrogen: -1 ppm
Nitrobacter spp.; 0.25 ppm, week 20
  Concentration of nitrite nitrogen: 40 ppm
Nitrobacter spp.; 0.50 ppm, week 0
  Concentration of nitrite nitrogen: 7 ppm
Nitrobacter spp.; 0.50 ppm, week 1
  Concentration of nitrite nitrogen: 2 ppm
Nitrobacter spp.; 0.50 ppm, week 2
  Concentration of nitrite nitrogen: 6 ppm
Nitrobacter spp.; 0.50 ppm, week 4
  Concentration of nitrite nitrogen: 2 ppm
Nitrobacter spp.; 0.50 ppm, week 7
  Concentration of nitrite nitrogen: -4 ppm
Nitrobacter spp.; 0.50 ppm, week 9
  Concentration of nitrite nitrogen: 2 ppm
Nitrobacter spp.; 0.50 ppm, week 12
  Concentration of nitrite nitrogen: -11 ppm
Nitrobacter spp.; 0.50 ppm, week 16
  Concentration of nitrite nitrogen: 7 ppm
Nitrobacter spp.; 0.50 ppm, week 20
  Concentration of nitrite nitrogen: 7 ppm
